Laboratory results from patent US8193252B1, “Mesoprogestins (progesterone receptor modulators) for the treatment and prevention of benign hormone dependent gynecological disorders” (Bayer Pharma AG, priority 1999, dated 2012).

Legend:
pregnant rats = experiment: Abortifacient activity in pregnant rats; format: in vivo, rat; details: s.c.; treatment days 5-7 of pregnancy, autopsy day 9; * SAS, probit procedure
Source text: (§1) The guinea pig is considered as relevant model of human gestation and parturition (Elger W, Fähnrich M, Beier S, Quing S S, Chwalisz K (1987). Endometrial and myometrial effects of progesterone antagonists in pregnant guinea pigs. Am J Obstet Gynecol 157: 1065-1074; Elger W, Neef G, Beier S, Fähnrich M, Gründel M, Heermann J, Malmendier A, Laurent D, Puri C P, Singh M M, Hasan S H, Becker H (1992). Evaluation of antifertility activities of antigestagens in animal model. In: Puri C P and Van Look P F A (eds), Current Concepts in Fertility Regulation and Reproduction. Wiley Eastern Limited, New Delhi, pp. 303-328; Elger W, Faehnrich M, Beier S, Qing S S, Chwalisz K (1986). Mechanism of action of progesterone antagonists in pregnant guinea pigs. Contraception 6: 47-62; Elger W, Chwalisz K, Faehnrich M, Hasan S H, Laurent D, Beier S, Ottow E, Neef G, Garfield R E (1990). Studies on labor-conditioning and labor-inducing effects of antiprogesterones in animal model. In: Garfield R E (eds), Norwell, pp. 153-175.) The mechanism of abortion of antiprogestins in this species is the initiation of labor and finally the expulsion of the conceptus. Abortifacient effects in the rat during very early pregnancy reflect inhibitory effects on nidation rather than initiation of uterine contractions. Studies in the rat model lead to “overestimation” of the potential of antiprogestins to terminate pregnancy in humans. Conversely, in the guinea pig model, irrespective of the antiprogestin doses, there were high rates of ongoing pregnancies similar to the situation in humans (Elger et al., Current Concepts in Fertility Regulation and Reproduction cited above). Furthermore, in both humans and guinea pigs, there is a strong synergism between antiprogestins and prostaglandins with respect the induction of labor (see the articles cited above and Elger W, Beier S (1983). Prostaglandine and Antigestagene für den Schwangerschaftsabbruch (Prostaglandins and antigestagens for pregnancy termination). German Patent DE 3337450 12; Van Look P, Bygdeman M (1989). Antiprogestational steroids: a new dimension in human fertility regulation. Oxford reviews of reproductive medicine 11: 2-60).

pregnant guinea pigs = experiment: Abortifacient / labor inducing activity in pregnant guinea pigs; format: in vivo, guinea pig; details: for abortifacient activity ED50, guinea pig: s.c., treatment day 43-44 of pregnancy, autopsy day 50; for ranking of abortifacient activity: treated on days 43 and 44 of pregnancy, observed until day 50
Procedure: In the guinea pig model which allows a good prediction of the effects in humans with respect to the abortifacient activity (Elger W, Beier S., Chwalisz K, Fähnrich M, Hasan S H, Henderson D, Neef G, Rohde R (1986): Studies on the mechanism of action of progesterone antagonists. J Steroid Biochem 25: 835-845) the mesoprogestins J 867, J 912, J 956, J 1042 lead up to 100 mg/kg/day to a maximal abortion rate of 20%.
as §1
Pregnant guinea pigs were treated on days 43 and 44 of pregnancy and observed until day 50 of gestation. For the effects of various treatments see table 1 and FIG. 2. It is typical for this model that expulsions occur with a delay of several days after treatment. It can be seen that Mesoprogestins have a much reduced abortifacient activity compared to RU486. […] The differences with respect to abortifacient activity seem qualitative ones. It is not possible to overcome the low abortifacient activity of a Mesoprogestin by the use of a higher dose.
FIG. 2 is graphs showing data on the assessment on cumulative rate of abortion until day 50 in guinea pigs treated on days 43 and 44 of pregnancy.

[1] = target: T1, PR (progesterone receptor) (Homo sapiens, UniProt P06401); experiment: Relative binding activity (RBA) at PR, progesterone = 100%; details: by Kaufmann
T1 sequence (P06401 1-933): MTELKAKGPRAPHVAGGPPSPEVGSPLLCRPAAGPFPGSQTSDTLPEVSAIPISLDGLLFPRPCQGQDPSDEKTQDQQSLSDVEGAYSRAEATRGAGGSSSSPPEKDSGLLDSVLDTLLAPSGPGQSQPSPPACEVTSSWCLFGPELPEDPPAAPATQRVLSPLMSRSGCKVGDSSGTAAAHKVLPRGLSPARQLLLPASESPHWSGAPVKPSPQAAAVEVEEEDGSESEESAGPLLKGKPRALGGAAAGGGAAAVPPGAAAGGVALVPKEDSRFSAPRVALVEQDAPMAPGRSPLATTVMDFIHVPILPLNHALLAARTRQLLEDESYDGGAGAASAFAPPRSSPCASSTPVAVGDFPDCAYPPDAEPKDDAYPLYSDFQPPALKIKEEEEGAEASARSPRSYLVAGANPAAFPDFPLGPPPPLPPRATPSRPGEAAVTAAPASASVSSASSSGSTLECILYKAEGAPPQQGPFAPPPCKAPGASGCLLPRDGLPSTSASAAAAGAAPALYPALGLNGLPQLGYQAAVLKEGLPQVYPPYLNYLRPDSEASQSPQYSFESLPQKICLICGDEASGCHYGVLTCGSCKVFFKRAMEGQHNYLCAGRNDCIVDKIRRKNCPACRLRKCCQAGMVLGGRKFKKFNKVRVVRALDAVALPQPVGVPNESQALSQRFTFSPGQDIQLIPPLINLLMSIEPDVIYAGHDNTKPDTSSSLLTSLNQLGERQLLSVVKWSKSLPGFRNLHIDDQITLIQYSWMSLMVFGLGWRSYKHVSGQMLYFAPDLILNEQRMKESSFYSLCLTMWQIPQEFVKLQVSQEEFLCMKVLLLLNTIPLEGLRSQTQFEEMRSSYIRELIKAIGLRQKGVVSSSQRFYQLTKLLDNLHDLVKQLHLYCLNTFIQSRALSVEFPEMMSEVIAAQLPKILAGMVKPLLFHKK

RBA (%) PR [1]	Structure (SMILES)	abortifacient activity ED50, rat (pregnant rats)	abortifacient activity ED50, guinea pig (pregnant guinea pigs)	ranking of abortifacient activity (pregnant guinea pigs)
345%	CCNC(=O)O/N=C/c1ccc([C@H]2C[C@@]3(C)[C@@H](CC[C@]3(COC)OC)[C@@H]3CCC4=CC(=O)CCC4=C32)cc1 [J956, 4-[17β-Methoxy-17α-(methoxymethyl)-3-oxoestra-4,9-dien-11β-yl]benzaldehyd-(1E)-[O-(ethylamino)carbonyl]oxim]	0.64* mg/animal/day	20 mg/animal/day	RU486>J956>J867, J912>J1042
302%	COC[C@]1(OC)CC[C@H]2[C@@H]3CCC4=CC(=O)CCC4=C3[C@@H](c3ccc(/C=N/O)cc3)C[C@@]21C [J867, 4-[17β-Methoxy-17α-(methoxymethyl)-3-oxoestra-4,9-dien-11β-yl]benzaldehyd-(1E)-oxim]	0.65* mg/animal/day	>100 mg/animal/day	RU486>J956>J867, J912>J1042
164%	CCSC(=O)O/N=C/c1ccc([C@H]2C[C@@]3(C)[C@@H](CC[C@]3(COC)OC)[C@@H]3CCC4=CC(=O)CCC4=C32)cc1 [J1042, 4-[17β-Methoxy-17α-(methoxymethyl)-3-oxoestra-4,9-dien-11β-yl]benzaldehyd-(1E)-[O-(ethylthio)carbonyl]oxim]	>10 mg/animal/day	>>100 mg/animal/day	RU486>J956>J867, J912>J1042
